The structures appear in SMILES notation.

Our source for the EC50 values is patent publication US11149040B2, “Fused triazole agonists of the APJ receptor” (AMGEN INC., priority 2017, dated 2021).

Chain of human APJ receptor (P35414 whole entry): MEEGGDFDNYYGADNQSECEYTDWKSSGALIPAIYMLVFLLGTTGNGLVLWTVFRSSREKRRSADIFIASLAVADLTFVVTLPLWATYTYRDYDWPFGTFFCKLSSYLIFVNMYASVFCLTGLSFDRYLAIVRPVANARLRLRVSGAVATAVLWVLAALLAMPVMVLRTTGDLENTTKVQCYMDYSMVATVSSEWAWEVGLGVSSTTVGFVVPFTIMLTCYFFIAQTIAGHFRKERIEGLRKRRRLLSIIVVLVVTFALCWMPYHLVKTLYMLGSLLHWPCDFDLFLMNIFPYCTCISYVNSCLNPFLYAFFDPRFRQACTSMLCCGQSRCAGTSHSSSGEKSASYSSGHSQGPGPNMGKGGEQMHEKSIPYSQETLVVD

This assay has as its target human APJ receptor (Homo sapiens (Human), UniProt P35414). Description: [35S]GTPγS binding assay on membranes from CHO cells stably expressing human APJ receptor. The settings on record: read-out: Activity hAPJ SPA EC50 IP. The format is biochemical. How it is done:
[^35S]GTPγS Binding The human APJ receptor was cloned by polymerase chain reaction and the gene encoding the receptor was subcloned in pFLAG-CMV™-3 expression vector (Sigma, Saint Louis, Mo. USA) in-house at Amgen. A GTPγS binding assay was performed on membranes prepared from CHO cells stably expressing human APJ receptor. The optimum experimental conditions for the concentrations of GDP, MgCl2, and NaCl in the assay buffer were initially determined. […] Incubation was at RT for 90 min and the microplate was read using a ViewLux™ ultra HTS Microplate Imager (PerkinElmer, Inc.). All the results presented are means of several independent experiments and analyzed by non-linear regression methods using the commercially available program Prism (GraphPad, San Diego, Calif.) providing the EC50 values detailed in Table 13.
Background: Binding of GTPγS marks nucleotide exchange on a G protein.
One may read the EC50 as the midpoint of the concentration-response curve. For `Cc1cnc([C@H](OC(C)C)[C@H](C)S(=O)(=O)Nc2nnc3n2[C@H](CO)COc2cccnc2-3)nc1` (mixture of isomers) [Example 58.0, (1S,2S)-N-((R)-5-(hydroxymethyl)-5,6-dihydropyrido[2,3-f][1,2,4]triazolo[4,3-d][1,4]oxazepin-3-yl)-1-isopropoxy-1-(5-methylpyrimidin-2-yl)propane-2-sulfonamide and (1S,2S)-N-((S)-5-(hydroxymethyl)-5,6-dihydropyrido[2,3-f][1,2,4]triazolo[4,3-d][1,4]oxazepin-3-yl)-1-isopropoxy-1-(5-methylpyrimidin-2-yl)propane-2-sulfonamide], the EC50 is 2.1 µM.

As to `COC[C@@H]1COc2ncccc2-c2nnc(NS(=O)(=O)[C@@H](C)[C@H](OC(C)C)c3ncc(C)cn3)n21` (mixture of isomers) [Example 59.0, (1R,2S)-N-((5R)-5-(methoxymethyl)-5,6-dihydropyrido[3,2-f][1,2,4]triazolo[4,3-d][1,4]oxazepin-3-yl)-1-(5-methyl-2-pyrimidinyl)-1-(2-propanyloxy)-2-propanesulfonamide and (1R,2S)-N-((5S)-5-(methoxymethyl)-5,6-dihydropyrido[3,2-f][1,2,4]triazolo[4,3-d][1,4]oxazepin-3-yl)-1-(5-methyl-2-pyrimidinyl)-1-(2-propanyloxy)-2-propanesulfonamide], the EC50 came to 1.2 µM. Next, `COC[C@@H]1COc2cccnc2-c2nnc(NS(=O)(=O)[C@@H](C)[C@@H](OC(C)C)c3ncc(C)cn3)n21` (mixture of isomers) [Example 61.0, (1S,2S)-N-((5R)-5-(methoxymethyl)-5,6-dihydropyrido[2,3-f][1,2,4]triazolo[4,3-d][1,4]oxazepin-3-yl)-1-(5-methyl-2-pyrimidinyl)-1-(2-propanyloxy)-2-propanesulfonamide and (1S,2S)-N-((5S)-5-(methoxymethyl)-5,6-dihydropyrido[2,3-f][1,2,4]triazolo[4,3-d][1,4]oxazepin-3-yl)-1-(5-methyl-2-pyrimidinyl)-1-(2-propanyloxy)-2-propanesulfonamide]: 0.44 µM. For `Cc1cnc([C@H](OC(C)C)[C@H](C)S(=O)(=O)Nc2nnc3n2[C@H](COC(C)C)COc2ccc(F)cc2-3)nc1` (mixture of isomers) [Example 62.0, (1S,2S)-N-((R)-10-fluoro-5-(isopropoxymethyl)-5,6-dihydrobenzo[f][1,2,4]triazolo[4,3-d][1,4]oxazepin-3-yl)-1-isopropoxy-1-(5-methylpyrimidin-2-yl)propane-2-sulfonamide and (1S,2S)-N-((S)-10-fluoro-5-(isopropoxymethyl)-5,6-dihydrobenzo[f][1,2,4]triazolo[4,3-d][1,4]oxazepin-3-yl)-1-isopropoxy-1-(5-methylpyrimidin-2-yl)propane-2-sulfonamide] the value was 0.021 µM. On to `COC[C@@H]1COc2cnccc2-c2nnc(NS(=O)(=O)[C@@H](C)[C@@H](OC(C)C)c3ncc(C)cn3)n21` (mixture of isomers) [Example 65.0, (1S,2S)-N-((5R)-5-(methoxymethyl)-5,6-dihydropyrido[4,3-f][1,2,4]triazolo[4,3-d][1,4]oxazepin-3-yl)-1-(5-methyl-2-pyrimidinyl)-1-(2-propanyloxy)-2-propanesulfonamide and (1S,2S)-N-((5S)-5-(methoxymethyl)-5,6-dihydropyrido[4,3-f][1,2,4]triazolo[4,3-d][1,4]oxazepin-3-yl)-1-(5-methyl-2-pyrimidinyl)-1-(2-propanyloxy)-2-propanesulfonamide], for which the EC50 was determined as 1.2 µM.
